Test results published in patent US12540120B2, “Herbicidal compounds” (SYNGENTA CROP PROTECTION AG, priority 2019, dated 2026).

Key:
Assay type in all cases: in vivo
[1] = system: Solanum nigrum (SOLNI); assay: B5 Pre-Emergence Efficacy—Test 2; details: 250 g/ha, evaluated after 13 days
How it was run: (§1)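 Compounds are applied pre-emergence at 250 g/ha, one day after sowing, in an aqueous acetone/water spray carrying 0.5% Tween 20. Damage is assessed 13 days later and scored from 1 (0-19%) to 5 (80-100%).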

[2] = system: Amaranthus retoflexus (AMARE); assay: B5 Pre-Emergence Efficacy—Test 2; details: 250 g/ha, evaluated after 13 days
How it was run: as §1

[3] = system: Ipomoea hederacea (IPOHE); assay: B5 Pre-Emergence Efficacy—Test 2; design: key: 5-point scale: 5=80-100%, 4=60-79%, 3=40-59%, 2=20-39%, 1=0-19% damage; details: 250 g/ha, evaluated after 13 days
How it was run: as §1

[4] = system: Echinochloa crus-galli (ECHCG); assay: B5 Pre-Emergence Efficacy—Test 2; design: key: 5-point scale: 5=80-100%, 4=60-79%, 3=40-59%, 2=20-39%, 1=0-19% damage; details: 250 g/ha, evaluated after 13 days
How it was run: as §1

[5] = system: Setaria faberi (SETFA); assay: B5 Pre-Emergence Efficacy—Test 2; design: key: 5-point scale: 5=80-100%, 4=60-79%, 3=40-59%, 2=20-39%, 1=0-19% damage; details: 250 g/ha, evaluated after 13 days
How it was run: as §1

[6] = system: Lolium perenne (LOLPE); assay: B5 Pre-Emergence Efficacy—Test 2; design: key: 5-point scale: 5=80-100%, 4=60-79%, 3=40-59%, 2=20-39%, 1=0-19% damage; details: 250 g/ha, evaluated after 13 days
How it was run: as §1

[7] = system: Solanum nigrum (SOLNI); assay: B2 Post-Emergence Efficacy—Test 2; details: post-emergence application, 250 g/ha, evaluated after 13 days (Test 2)
How it was run: (§2)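 Damage rated 13 days after treatment on a 1–5 scale (1=0-19%, 5=80-100%). Compounds were applied at 250 g/ha in acetone/water (50:50) with 0.5% Tween 20 to 8-day-old seedlings, grown under glasshouse conditions of 24/16 °C day/night, 14 h light, 65% humidity.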

[8] = system: Amaranthus retoflexus (AMARE); assay: B2 Post-Emergence Efficacy—Test 2; details: post-emergence application, 250 g/ha, evaluated after 13 days (Test 2)
How it was run: as §2

[9] = system: Ipomoea hederacea (IPOHE); assay: B2 Post-Emergence Efficacy—Test 2; details: post-emergence application, 250 g/ha, evaluated after 13 days (Test 2)
How it was run: as §2

[10] = system: Echinochloa crus-galli (ECHCG); assay: B2 Post-Emergence Efficacy—Test 2; details: post-emergence application, 250 g/ha, evaluated after 13 days (Test 2)
How it was run: as §2

[11] = system: Setaria faberi (SETFA); assay: B2 Post-Emergence Efficacy—Test 2; details: post-emergence application, 250 g/ha, evaluated after 13 days (Test 2)
How it was run: as §2

[12] = system: Lolium perenne (LOLPE); assay: B2 Post-Emergence Efficacy—Test 2; details: post-emergence application, 250 g/ha, evaluated after 13 days (Test 2)
How it was run: as §2

Row | SMILES | Control of weed species after pre-emergence application, SOLNI (percentage damage, five point scale) [1] | Control of weed species after pre-emergence application, AMARE (percentage damage, five point scale) [2] | Control of weed species after pre-emergence application, IPOHE (percentage damage, five point scale) [3] | Control of weed species after pre-emergence application, ECHCG (percentage damage, five point scale) [4] | Control of weed species after pre-emergence application, SETFA (percentage damage, five point scale) [5] | Control of weed species after pre-emergence application, LOLPE (percentage damage, five point scale) [6] | percentage damage caused to the plant, five point scale, SOLNI [7] | percentage damage caused to the plant, five point scale, AMARE [8] | percentage damage caused to the plant, five point scale, IPOHE [9] | percentage damage caused to the plant, five point scale, ECHCG [10] | percentage damage caused to the plant, five point scale, SETFA [11] | percentage damage caused to the plant, five point scale, LOLPE [12]
1 | Cc1nn(C)c(=O)c(-c2c(F)ccc(Cl)c2CCc2ccc(C#N)cc2)c1OC(=O)C(C)C [Compound A-3.036, [5-[3-Chloro-2-[2-(4-cyanophenyl)ethyl]-6-fluoro-phenyl]-1,3-dimethyl-6-oxo-pyridazin-4-yl] 2-methylpropanoate] | 5 (5=80-100%) | 5 (5=80-100%) | 5 (5=80-100%) | 5 (5=80-100%) | 5 (5=80-100%) | 5 (5=80-100%) | 5 (5=80-100%) | 5 (5=80-100%) | 5 (5=80-100%) | 4 (4=60-79%) | 4 (4=60-79%) | 4 (4=60-79%)
2 | Cc1nn(C)c(=O)c(-c2c(F)ccc(Cl)c2CCc2ccccc2C#N)c1OC(=O)C(C)C [Compound A-3.029] | 5 (5=80-100%) | 4 (4=60-79%) | 3 (3=40-59%) | 3 (3=40-59%) | 2 (2=20-39%) | 2 (2=20-39%) | 5 (5=80-100%) | 4 (4=60-79%) | 5 (5=80-100%) | 1 (1=0-19%) | 2 (2=20-39%) | 2 (2=20-39%)
3 | COC(=O)c1ccc(CCc2c(Cl)ccc(F)c2-c2c(O)c(C)nn(C)c2=O)cc1 [Compound A-1.041] | 0 | 4 (4=60-79%) | 0 | 0 | 0 | 0 | 5 (5=80-100%) | 5 (5=80-100%) | 2 (2=20-39%) | 1 (1=0-19%) | 4 (4=60-79%) | 1 (1=0-19%)
4 | Cc1nn(C)c(=O)c(-c2c(F)ccc(Cl)c2/C=C/c2cccc(C#N)c2)c1O [Compound A-2.030] | 0 | 0 | 0 | 0 | 0 | 0 | 4 (4=60-79%) | 3 (3=40-59%) | 4 (4=60-79%) | 0 | 0 | 1 (1=0-19%)
5 | Cc1nn(C)c(=O)c(-c2c(F)ccc(Cl)c2CCc2ccc(OC(C)(C)C)cc2)c1O [Compound A-1.035] | 3 (3=40-59%) | 4 (4=60-79%) | 1 (1=0-19%) | 1 (1=0-19%) | 3 (3=40-59%) | 3 (3=40-59%) | 5 (5=80-100%) | 4 (4=60-79%) | 4 (4=60-79%) | 4 (4=60-79%) | 4 (4=60-79%) | 4 (4=60-79%)
6 | Cc1nn(C)c(=O)c(-c2c(F)ccc(Cl)c2CCc2ccc(C(=O)O)cc2)c1O [Compound A-1.040] | 0 | 0 | 0 | 0 | 0 | 0 | 3 (3=40-59%) | 3 (3=40-59%) | 0 | 0 | 0 | 0
7 | CCN(C)C(=O)c1ccc(CCc2c(Cl)ccc(F)c2-c2c(O)c(C)nn(C)c2=O)cc1F [Compound A-1.028, 4-[2-[6-chloro-3-fluoro-2-(5-hydroxy-2,6-dimethyl-3-oxo-pyridazin-4-yl)phenyl]ethyl]-N-ethyl-2-fluoro-N-methyl-benzamide] | 5 (5=80-100%) | 5 (5=80-100%) | 5 (5=80-100%) | 4 (4=60-79%) | 5 (5=80-100%) | 5 (5=80-100%) | 5 (5=80-100%) | 5 (5=80-100%) | 5 (5=80-100%) | 5 (5=80-100%) | 5 (5=80-100%) | 5 (5=80-100%)
8 | Cc1nn(C)c(=O)c(-c2c(F)ccc(Cl)c2CCc2ccc(S(C)(=O)=O)cc2)c1O [Compound A-1.032] | 5 (5=80-100%) | 5 (5=80-100%) | 2 (2=20-39%) | 5 (5=80-100%) | 5 (5=80-100%) | 5 (5=80-100%) | 5 (5=80-100%) | 5 (5=80-100%) | 5 (5=80-100%) | 5 (5=80-100%) | 5 (5=80-100%) | 5 (5=80-100%)
9 | CC(=O)Nc1cc(CCc2c(Cl)ccc(F)c2-c2c(O)c(C)nn(C)c2=O)ccn1 [Compound A-1.044] | 5 (5=80-100%) | 5 (5=80-100%) | 1 (1=0-19%) | 3 (3=40-59%) | 5 (5=80-100%) | 2 (2=20-39%) | 5 (5=80-100%) | 5 (5=80-100%) | 0 | 3 (3=40-59%) | 5 (5=80-100%) | 4 (4=60-79%)
